Values after ≈ are worked out from the molar mass of the structure shown. Where two headings read alike, the source gives them in different places.
Experiments:
[1] = test system: isolates from peptidomimetic 1-exposed E. coli ATCC 25922 lineages; details: for MIC in MHB: standard MHB media
Description: Continuous selection of resistance was performed for peptidomimetic 1 (Figure 1) and for the clinically relevant natural antimicrobial peptide, polymyxin B. A bacterial suspension of a single colony of E. coli ATCC 25922 was re-inoculated (10 µl) five times in unsupplemented MHB (990 µl). It was then re-inoculated in MHB supplemented with peptidomimetic 1 (ten lineages) or polymyxin B (ten lineages), and after ten re-inoculations at constant peptidomimetic or polymyxin B concentration, the concentrations were doubled. […] Four lineages grown in MHB with MilliQ water were included as control. Re-inoculations were performed twice a day, but were reduced to once a day when growth was slower as assessed by turbidity of the cultures. The total number of passages (supplemented with peptidomimetic/AMP) was 77 times equivalent to approx. 500 generations. For each increase in concentration the lineages were preserved as freezing stocks. Ten colony isolates were randomly selected from each lineage population at 32×MIC and preserved as freezing stocks.
MIC was determined by using the micro-dilution method according to guidelines of the Clinical and Laboratory Standards Institute. Peptidomimetic 1 and erythromycin 1∶2 serial dilutions were prepared from 1024 µg/mL stock solutions to give a final range of 512-0.5 µg/mL in the wells. Ampicillin 1∶2 serial dilutions were prepared from a 256 µg/mL stock solution to give a final range of 128-0.13 µg/mL in the wells. Polymyxin B and gentamicin 1∶2 serial dilutions were prepared from a 64 µg/mL stock solution to give a final range of 32-0.03 µg/mL in the wells.
The population lineages were tested for their susceptibility towards peptidomimetic 1, polymyxin B, gentamicin and ampicillin. Single-culture isolates selected from these populations were additionally tested against peptidomimetic 1, polymyxin B, erythromycin and the five reference AMPs. To estimate the level of cross-resistance to closely related peptidomimetics, MIC determinations were performed for peptidomimetics 2 and 3 (Figure 1) towards selected isolates. The bacterial suspensions were grown overnight in MHB at 37°C for determination of the population MIC, or individual isolates were grown overnight on non-selective BHI agar at 37°C. […] In all experiments, bacterial cells were suspended in 0.9% saline to give a turbidity of 0.13 at OD546 (approximately 1×10^8 CFU/mL) and diluted in MHB pH 7.4 to a final concentration of 5×10^5 CFU/mL in each well. Polypropylene plates (Nunc 442587) were used to minimize peptide binding, and the incubation time was 18–20 hours at 37°C. […] MIC was found in a minimum of two technical (population MIC) or biological (isolate MIC) replicates as the lowest concentration of the AMP or antibiotic where no visible growth was observed.

[2] = test system: Escherichia coli ATCC 25922; type: cell-based; details: wild-type E. coli ATCC 25922; MHB pH 7.4, 5×10^5 CFU/mL, 37°C, 18–20 h
Description: All experiments were performed with Escherichia coli ATCC 25922. Stock cultures of the wild-type strain and lineage isolates were stored at –80°C in 4% (w/v) glycerol, 0.5% (w/v) glucose, 2% (w/v) skimmed milk powder and 3% (w/v) tryptone soy powder. Lineage populations were frozen at –80°C in 50% (w/v) glycerol. All experiments were performed at 37°C. Experiments were carried out in cation-adjusted Mueller Hinton II broth (MHB) (Becton Dickinson 212322) adjusted to pH 7.4 or in 1% (w/v) peptone (Becton Dickinson 211677) for MIC determination of natural AMPs. Brain Heart Infusion (BHI) (CM1135) with agar (VWR 20768.292) 1.5% as gelling agent was used throughout for colony plating.
MIC was determined by using the micro-dilution method according to guidelines of the Clinical and Laboratory Standards Institute. Peptidomimetic 1 and erythromycin 1∶2 serial dilutions were prepared from 1024 µg/mL stock solutions to give a final range of 512-0.5 µg/mL in the wells. Ampicillin 1∶2 serial dilutions were prepared from a 256 µg/mL stock solution to give a final range of 128-0.13 µg/mL in the wells. Polymyxin B and gentamicin 1∶2 serial dilutions were prepared from a 64 µg/mL stock solution to give a final range of 32-0.03 µg/mL in the wells. Also, 1∶2 serial dilutions of the AMPs KR-12, IsCTp, melittin and PEP-1-K were prepared from 64 µg/mL stock solutions to give a final range of 32-0.03 µg/mL in the wells; however this was performed in 1% peptone instead of in MHB since activity was drastically diminished in the latter (not shown).
The population lineages were tested for their susceptibility towards peptidomimetic 1, polymyxin B, gentamicin and ampicillin. Single-culture isolates selected from these populations were additionally tested against peptidomimetic 1, polymyxin B, erythromycin and the five reference AMPs. To estimate the level of cross-resistance to closely related peptidomimetics, MIC determinations were performed for peptidomimetics 2 and 3 (Figure 1) towards selected isolates. […]

CC(=O)N[C@@H](CCCCNC(=N)N)C(=O)N(CCC(=O)N[C@@H](CCCCNC(=N)N)C(=O)N(CCC(=O)N[C@@H](CCCCNC(=N)N)C(=O)N(CCC(=O)N[C@@H](CCCCNC(=N)N)C(=O)N(CCC(=O)N[C@@H](CCCCNC(=N)N)C(=O)N(CCC(=O)N[C@@H](CCCCNC(=N)N)C(=O)N(CCC(N)=O)[C@@H](C)c1ccccc1)[C@@H](C)c1ccccc1)[C@@H](C)c1ccccc1)[C@@H](C)c1ccccc1)[C@@H](C)c1ccccc1)[C@@H](C)c1ccccc1 [peptidomimetic 1]
MIC of individual isolates ([1]; eight out of ten isolates from lineage no. 4): 8 µg/mL | MIC of isolate ([1]; isolate 2–3, first listed of three biological replicates): 8 µg/mL | MIC of isolate ([1]; isolate 2–3, second listed of three biological replicates): 16 µg/mL | MIC of isolate ([1]; isolate 2–3, third listed of three biological replicates): 64 µg/mL | MIC in MHB ([1]; isolate 2–7 (lineage 2)): 64 to 128 µg/mL | MIC of isolate ([1]; isolate 2–8, first listed of three biological replicates): 16 µg/mL | MIC of isolate ([1]; isolate 2–8, second listed of three biological replicates): 64 µg/mL | MIC of isolate ([1]; isolate 2–8, third listed of three biological replicates): 128 µg/mL | MIC in MHB ([1]; isolate 4–4 (lineage 4)): 8 µg/mL (≈ 3.75 µM) | MIC in MHB ([1]; isolate 5–6 (lineage 5)): 32 to 64 µg/mL | MIC in MHB ([1]; isolate 7–3 (lineage 7)): 128 µg/mL (≈ 60 µM) | grouping of genome-sequenced isolates by MIC: high resistance ([1]; isolates 2–4, 2–6, 2–7, 2–9, 2–10, 7–3, 7–4, 7–7, wt MIC value 8 µg/mL): High resistance isolates: 8–16 ×wt MIC | MIC ([1]; isolates 2–4 and 2–6 (shared values), two biological replicates, mean when results varied): 96 µg/mL (≈ 45 µM) | grouping of genome-sequenced isolates by MIC: low resistance ([1]; isolates 4-1, 4-3, 5-6, 5-8, 5-9, wt MIC value 8 µg/mL): Low resistance isolates: 4–8 ×wt MIC | grouping of genome-sequenced isolates by MIC ([1]; isolates 4–4, 4–6, 4–10, 5–2, 5–4, 7–9, 7–10, wt MIC value 8 µg/mL): Isolates with wt MIC | MIC of individual isolates ([1]; seven out of ten isolates from lineage no. 5): 8 µg/mL | MIC lower as compared to that of the lineage population (256 µg/mL) ([1]; the other two isolates from lineage no. 4): 4 fold | MIC of individual isolates, span ([1]; the ten isolates from lineage no. 2, biological replicates): 8 to 128 µg/mL | MIC of individual isolates, span ([1]; the ten isolates from lineage no. 7): 8 to 128 µg/mL | wt MIC [2]: 8 µg/mL
